Measured values reported in patent US20240279218A1 (Hoffmann-La Roche Inc., priority 2016, published 2024).

Key:
h-GABA-A α5β3γ2 [1] = target: T1, h-GABA-A α5β3γ2 (Homo sapiens (Human), UniProt P18507+P31644); experiment: Two-electrode voltage clamp electrophysiology in Xenopus oocytes expressing GABAA receptors, modulation of GABA EC20 current; assay type: cell-based; settings: for Efficacy (GABA) %: % modulation of GABA EC20 = 100*(Fold increase−1); for Efficacy (GABA) % / Fold increase h-GABA-A α5β3γ2 oocyte: Xenopus oocytes; for Fold increase h-GABA-A α5β3γ2 oocyte: GABA EC20, test compound at approx. 30 fold its Ki
Experimental: Xenopus laevis oocytes at maturation stages V-VI were used for the expression of cloned mRNA encoding GABAA receptor subunits. Oocytes ready for RNA micro-injection were bought from Ecocyte, Castrop-Rauxel, Germany and stored in modified Barth's medium (composition in mM: NaCl 88, KCl 1, NaHCO32.4, HEPES 10, MgSO4 0.82, CaNO3 0.33, CaCl2) 0.33, pH=7.5) at 20° C. until the experiment.
Oocytes were plated in 96-well plates to be used in an automated instrument (Robo-ocyte, MultiChannelSystems, Reutlingen, Germany) for microinjection and electrophysiological recordings. Approximately 50 nl of an aqueous solution containing the RNA transcripts for the subunits of the desired GABAA receptor was injected into each oocyte. RNA concentrations ranged between 0.3 and 16 ng/μl/subunit and were adjusted in pilot experiments to obtain GABA responses of a suitable size and a maximal effect of the reference modulator, Beta-CCM (β-CCM), a betacarboline negative allosteric modulator (NAM) at the GABAA receptor benzodiazepine (BZD) binding site or Midazolam, a benzodiazepine positive allosteric modulator (PAM) at the GABAA receptor benzodiazepine (BZD) binding site. The concentration of the γ2 subunit encoding RNA usually was 5-to 10-fold higher than the RNAs encoding the other subunits. Oocytes were kept in modified Barth's medium (composition in mM: NaCl 88, KCl 1, NaHCO3 4, HEPES 10, MgSO4 0.82, CaNO3 0.33, CaCl2 0.33, pH=7.5) at 20° C. until the experiment.
Electrophysiological experiments were performed on days 3 to 5 after the micro-injection of mRNA. During the experiment the oocytes were constantly superfused by a solution containing (in mM) NaCl 90, KCl 1, HEPES 5, MgCl2 1, CaCl2 1 (pH 7.4). Oocytes were impaled by two glass microelectrodes (resistance: 0.4 MΩ) which were filled with a solution containing KCl 1M+K-acetate 1.5 M and voltage-clamped to −80 mV. The recordings were performed at room temperature using the Roboocyte two-electrode voltage clamp system (Multichannelsystem). After an initial equilibration period of 1.5 min GABA was added for 1.5 min at a concentration evoking approximately 20% of a maximal current response (EC20). After another rest interval of 2.5 min GABA was again added evoking a response of similar amplitude and shape. […] Current traces were recorded at a digitization rate of 10 Hz during and shortly before and after the GABA application.
Each compound and concentration was tested on at least 3 oocytes.
For the analysis, the digitized current traces of the first and second GABA response were superimposed and, if necessary, rescaled to equal maximal amplitudes. The ratio between the two responses during the time interval of test compound application was calculated point by point. The extremum of the resulting “ratio trace” was taken as the efficacy (“Fold increase”) of the compound expressed as “% modulation of GABA EC20” (100*(Fold increase−1)).

h-GABA-A α5β3γ2 [2] = target: T1, h-GABA-A α5β3γ2; experiment: [3H]flumazenil competition binding assay, membranes of HEK293 cells expressing human GABAA receptors; settings: displacement of [3H]flumazenil 0.5 nM, HEK293 cells expressing human receptors, mean of two determinations; read-out: Ki h-GABA-A α5β3γ2
Experimental: The affinity of compounds at GABAA receptor subtypes was measured by competition for [3H]flumazenil (85 Ci/mmol; Roche) binding to HEK293 cells expressing rat (stably transfected) or human (transiently transfected) receptors of composition α1β3γ2, α2β3γ2, α3β3γ2 and α5β3γ2.
Cell pellets were suspended in Krebs-tris buffer (4.8 mM KCl, 1.2 mM CaCl2, 1.2 mM MgCl2, 120 mM NaCl, 15 mM Tris; pH 7.5; binding assay buffer), homogenized by polytron for ca. 20 sec on ice and centrifuged for 60 min at 4° C. (50000 g; Sorvall, rotor: SM24=20000 rpm). The cell pellets were resuspended in Krebs-tris buffer and homogenized by polytron for ca. 15 sec on ice. Protein was measured (Bradford method, Bio-Rad) and aliquots of 1 mL were prepared and stored at −80° C.
Assays were incubated to equilibrium for 1 hour at 4° C. and harvested onto GF/C uni-filters (Packard) by filtration using a Packard harvester and washing with ice-cold wash buffer (50 mM Tris; pH 7.5). After drying, filter-retained radioactivity was detected by liquid scintillation counting. Ki values were calculated using Excel-Fit (Microsoft) and are the means of two determinations.

[3] = positive control, maximally effective concentration, 3-6 oocytes per plate

SMILES | Efficacy (GABA) % (h-GABA-A α5β3γ2 [1]) [%] | Fold increase h-GABA-A α5β3γ2 oocyte (h-GABA-A α5β3γ2 [1]) | Ki (h-GABA-A α5β3γ2 [2]) [nM] | Fold increase (h-GABA-A α5β3γ2 [1]; [3]) | potentiation of the GABA-induced current (h-GABA-A α5β3γ2 [1]; [3]) [%] | inhibition of the GABA-evoked current (h-GABA-A α5β3γ2 [1]; [3]) [%]
Cc1ccc(-c2noc(C)c2COc2ccc(C(=O)NC(C)C(F)(F)F)nn2)cn1 (racemic) [Example 34, (RS)-6-((5-methyl-3-(6-methylpyridin-3-yl)isoxazol-4-yl)methoxy)-N-(1,1,1-trifluoropropan-2-yl)pyridazine-3-carboxamide] | 84 | 1.84 |  |  |  | 
Cc1ccc(-c2noc(C)c2COc2ccc(C(=O)NC3CCS(=O)(=O)C3)nn2)cn1 (racemic) [Example 36, (RS)—N-(1,1-dioxothiolan-3-yl)-6-((5-methyl-3-(6-methylpyridin-3-yl)-1,2-oxazol-4-yl)methoxy)pyridazine-3-carboxamide] | 65 | 1.65 |  |  |  | 
Cc1ccc(-c2noc(C)c2COc2ccc(C(=O)NC3CCOC3)nn2)cn1 (racemic) [Example 45, (RS)-6-((5-methyl-3-(6-methylpyridin-3-yl)isoxazol-4-yl)methoxy)-N-(tetrahydrofuran-3-yl)pyridazine-3-carboxamide] | 84 | 1.84 |  |  |  | 
Cc1ccc(-c2noc(C)c2COc2ccc(C(=O)NC3CCOC(C)(C)C3)nn2)cn1 (racemic) [Example 58, (RS)—N-(2,2-dimethyltetrahydropyran-4-yl)-6-((5-methyl-3-(6-methylpyridin-3-yl)isoxazol-4-yl)methoxy)pyridazine-3-carboxamide] | 71 | 1.71 |  |  |  | 
Cc1ccc(-c2noc(C)c2COc2ccc(C(=O)NC3(C)CCOC3)nn2)cn1 (racemic) [Example 75] | 89 | 1.89 |  |  |  | 
Cc1ccc(-c2noc(C)c2COc2ccc(C(=O)N[C@@H]3CC[C@@H](O)C3)nn2)cn1 (racemic) [Example 152, N-((1RS,3RS)-3-hydroxycyclopentyl)-6-((5-methyl-3-(6-methylpyridin-3-yl)isoxazol-4-yl)methoxy)pyridazine-3-carboxamide] | 85 | 1.85 |  |  |  | 
CO[C@@H]1CC[C@@H](NC(=O)c2ccc(OCc3c(-c4ccc(C)nc4)noc3C)nn2)C1 (racemic) [Example 166, trans-N-((1RS,3RS)-3-methoxycyclopentyl)-6-((5-methyl-3-(6-methylpyridin-3-yl)isoxazol-4-yl)methoxy)pyridazine-3-carboxamide] | 70 | 1.7 |  |  |  | 
Cc1ccc(-c2noc(C)c2COc2ccc(C(=O)NC3CCCOCC3)nn2)cn1 (racemic) [Example 187, (RS)-6-((5-methyl-3-(6-methylpyridin-3-yl)isoxazol-4-yl)methoxy)-N-(oxepan-4-yl)pyridazine-3-carboxamide] | 88 | 1.88 |  |  |  | 
Cc1ccc(-c2noc(C)c2COc2ccc(C(=O)N[C@@]3(C)CCOC3)nn2)cn1 (single isomer, unassigned) [Example 81] | 80 | 1.8 | 10.4 |  |  | 
Cc1ccc(-c2noc(C)c2COc2ccc(C(=O)N[C@]3(C)CCOC3)nn2)cn1 (single isomer, unassigned) [Example 82] | 101 | 2.01 | 12.4 |  |  | 
Cc1ccc(-c2noc(C)c2COc2ccc(C(=O)N[C@@H]3CC[C@@](O)(C(F)(F)F)C3)nn2)cn1 (single isomer, unassigned) [Example 149] | 37 | 1.37 | 5 |  |  | 
Cc1ccc(-c2noc(C)c2COc2ccc(C(=O)N[C@H]3CC[C@](O)(C(F)(F)F)C3)nn2)cn1 (single isomer, unassigned) [Example 150] | 69 | 1.69 | 16.7 |  |  | 
Cc1ccc(-c2noc(C)c2COc2ccc(C(=O)N[C@H]3C[C@H]4CC[C@H]3O4)nn2)cn1 (single isomer, unassigned) [Example 188] | 71 | 1.71 | 20.7 |  |  | 
Cc1ccc(-c2noc(C)c2COc2ccc(C(=O)N[C@@H]3C[C@@H]4CC[C@@H]3O4)nn2)cn1 (single isomer, unassigned) [Example 189] | 86 | 1.86 | 18.8 |  |  | 
Cc1ccc(-c2noc(C)c2COc2cnc(C(=O)NC3CCOC3)cn2)cn1 (stereo in doubt) [Example 92, (S)-5-((5-Methyl-3-(6-methylpyridin-3-yl)isoxazol-4-yl)methoxy)-N-(tetrahydrofuran-3-yl)pyrazine-2-carboxamide] | 67 | 1.67 | 13.2 |  |  | 
Cc1ccc(-c2noc(C)c2COc2ccc(C(=O)NC3CCOCC3)cn2)cn1 [Example 1, 6-((5-methyl-3-(6-methyl-3-pyridyl)isoxazol-4-yl)methoxy)-N-tetrahydropyran-4-yl-pyridine-3-carboxamide] | 42 | 1.42 | 4.8 |  |  | 
Cc1ccc(-c2nocc2COc2ccc(C(=O)NC3CCOCC3)cn2)cn1 [Example 44, 6-((3-(6-methyl-3-pyridyl)isoxazol-4-yl)methoxy)-N-tetrahydropyran-4-yl-pyridine-3-carboxamide] | 54 |  |  |  |  | 
Cc1ccc(-c2noc(C)c2COc2ccc(C(=O)NC(C)(C)CCS(C)(=O)=O)nn2)cn1 [Example 80, 6-((5-methyl-3-(6-methylpyridin-3-yl)isoxazol-4-yl)methoxy)-N-(2-methyl-4-(methylsulfonyl)butan-2-yl)pyridazine-3-carboxamide] | 108 | 2.08 |  |  |  | 
Cc1ccc(-c2noc(C)c2COc2ccc(C(=O)N3C[C@@H]4C[C@H]3CO4)nn2)cn1 [Example 151, (1S,4S)-2-oxa-5-azabicyclo[2.2.1]heptan-5-yl(6-((5-methyl-3-(6-methylpyridin-3-yl)isoxazol-4-yl)methoxy)pyridazin-3-yl)methanone] | 68 |  |  |  |  | 
Cc1onc(-c2ccc(Cl)nc2)c1COc1ccc(C(=O)N[C@H]2CCOC2)nn1 [Example 160, (S)-6-((3-(6-chloropyridin-3-yl)-5-methylisoxazol-4-yl)methoxy)-N-(tetrahydrofuran-3-yl)pyridazine-3-carboxamide] | 42 |  |  |  |  | 
O=C(N[C@H]1CCOC1)c1ccc(OCc2c(-c3ccc(Cl)nc3)noc2C2CC2)nn1 [Example 179, (S)-6-((3-(6-chloropyridin-3-yl)-5-cyclopropylisoxazol-4-yl)methoxy)-N-(tetrahydrofuran-3-yl)pyridazine-3-carboxamide] | 82 |  |  |  |  | 
Cc1ncc2n1-c1ccc(Cl)cc1C(c1ccccc1F)=NC2 [Midazolam, reference compound] |  |  |  | ~2.5 | ~150 | 
COC(=O)c1cc2c(cn1)[nH]c1ccccc12 [β-CCM, Beta-CCM, reference compound] |  |  |  | ~0.5 |  | ~50
